The test system of one series is HaCaT keratinocytes. As to the kind of experiment: DCFH assay: UV-B-induced intracellular ROS (epidermal anti-oxidant potential, AOE). The format is cell-based, human. Conditions: for AOE, % reduction of [ROSUV]: vs (+) UV control. The text has this: 3.1.1) The principle of the assay is based on the measurement of the intracellular oxidation level by means of the probe: 2′,7′-dichloro-dihydrofluorescein diacetate (DCFH-DA). Non-fluorescent DCFH-DA penetrates by passive diffusion into the cells. After cleavage of the acetate groups by the esterases, DCFH accumulates at the cytosol. The oxidation of DCFH by the reactive oxygen species (ROS: “Reactive Oxidative Species”) leads to the formation of a fluorescent compound. The DCF fluorescence intensity gives the possibility of evaluating the oxidation level of the cells subject to an oxidative stress.
More specifically, the measurement of the fluorescence intensities of DCF gives the possibility of evaluating the oxidation level of the cells subject to an oxidative stress. The DCFH assay detects a large range of ROSes: hydroxyl peroxyl and other ROSes (Fluorescence probes used for detection of reactive oxygen species, A. Gomes et al., J. Biochem. Biophys. Methods, 65:45-80; 2005).
HaCaT keratinocytes cultivated in a mono-layer are detached by trypsinization. The cell suspension is sown in 24-well plates.
2 plates are sown in parallel: 1 plate [DCFH] (measurement of DCFH fluorescence) and 1 plate [Prot] (measurement of cell proteins).
The plates [DCFH] and [Prot] are treated in parallel, in an identical way, according to the following experimental procedure.
72 hours after sowing, the culture medium is removed and replaced with fresh medium containing the assay element. The cells are replaced at 37° C. and incubated for 24 hours, in an air-CO2 atmosphere (95%/5%). After incubation with the assay element, the cells are rinsed with HBSS (a so called Hanks solution) and then exposed to UV-B (Philips TL-K 40 W ACTINIC BL REFLECTOR tubes) through the HBSS. The cells were treated with the various assayed complexes before (24 h) and after (24 h) irradiation with UV-B for about 30 minutes at 20 mJ/cm^2.
After irradiation, the HBSS is replaced with fresh medium containing the assay element. The cells are replaced at 37° C. for 24 h in an air-CO2 atmosphere (95%/5%). At the end of the assay, the [DCFH] and [Prot] plates are treated, in the following way:
The [DCFH] plates are emptied and rinsed with PBS. The cells are then incubated at 37° C., in the presence of a DCFH-DA solution. After incorporating the probe, the cells are rinsed with PBS. An extraction buffer (Triton X-100 1%) is added into each well. After 45 mins of incubation, the lyzates are sampled, transferred into 96-well plates. The fluorescence intensities (λExc: 485 nm, λEm: 535 nm) are expressed in relative fluorescence units (RFU).
A dosage of the proteins (BCA protein assay) is carried out in parallel in order to correct the [DCFH] values (RFU/well) according to the cell protein level (pg/well) in order to do without a variation in the number of cells related to an effect of the assay element on cell growth.
The assay was carried out on HaCaT keratinocytes (HaCaTp91 strain) cultivated in a [DMEM+1% FCS] medium. The intracellular oxidation level was measured after treatment and irradiation of the cells.
The intracellular oxidation level (F.R.U/well: relative fluorescence unit) recorded at the control and treated cultures was corrected according to the average cell protein level (μg/well). The values [DCFH] are expressed in arbitrary units (from the optical densities): [DCFH]=(F.R.U/μg prot.).
Assay conditions: • 1. Pretreating the cells for 24 h, with the assay elements, before irradiation of the cells, • 2. Exposure of the cells to UV-B (20 mJ/cm^2), in the absence of the assay elements, • 3. Incubation of the irradiated cells for 24 h, in the presence of the assay elements, • 4. Quantification of the intracellular oxidation level (ROS) by measuring the fluorescence of DCFH.
The intracellular oxidation level (RFU/well) recorded at the control and treated cultures were corrected according to the average level of cell proteins (μg/well). […]

Another series concerns procollagen I. As to the kind of experiment: Procollagen I [PIP] ELISA on UV-A irradiated fibroblasts (DPC). It counts as cell-based, human. As for the experimental part:
(§1) 3.2.1) The principle of the assay is based on the evaluation of 2 parameters—neosynthesis of collagen I and production of MMP-1—on human fibroblasts [NHDF] cultivated in the absence or in the presence of the assay element, and stimulated by UV-A.
(§2) The level of procollagen I is quantified by assaying [PIP] (procollagen of the I peptide type) in incubation media by means of an ELISA assay. The measurement of the MMP-1 level is conducted on the incubation media by means of an ELISA assay.
(§3) Fibroblasts [NHDF] are detached from their support by trypsinization. After counting, the cell suspension is sown in 24-well plates in an amount of 1.10^5 cells/well, in a [D-MEM+10% FCS] medium.
(§4) After 24 h of incubation, the culture medium is removed and replaced with fresh medium supplemented with 1% of FCS, without any ascorbic acid and containing the product(s) to be investigated. The cells are replaced in the oven and incubated for 24 h, in an air-CO2 atmosphere (95%/5%).
(§5) After incubation with test solutions, the cells are rinsed with HBSS and then exposed to UV-A (Philips TL-K 40 W ACTINIC BL REFLECTOR tubes) through HBSS. The UV-A irradiation is of about 10 J/cm^2 for 1 h. After irradiation, the HBSS is replaced with fresh medium containing the assay element.
(§6) The cells are replaced at 37° C. and incubated for 24 h. At the end of the assay, the incubation media of the cultures are sampled and frozen at −20° C. while awaiting the assaying of procollagen I and of MMP-1.
(§7) In parallel, the cell mats are rinsed with HBSS and treated for an assay of cell proteins (BCA protein assay). A (0.1N) NaOH solution is added into each well. After incubation, the extracts are sampled and transferred into a 96-well plate. 200 μl of BCA reagent are added into each well. After incubation, the absorbance (optical density) is measured at 570 nm with a microplate reader.
The assay of the procollagen I in the samples is carried out with an ELISA assay (Procollagen Type I C-Peptide EIA Kit from R&D Systems® laboratories, France) for detecting and quantifying by fluorescence the C-terminal peptide of human procollagen I.
(§8) In both cases, the quantification of the fluorescence is accomplished in the culture supernatants, according to the instructions provided by the R&D Systems® laboratories, France, the absorbance being measured at 450 nm.
(§9) The assay was carried out on [NHDF] (F06.2H7 strain) fibroblasts cultivated in a [DMEM+1% FCS] medium, in the absence of sodium ascorbate.
(§10) The levels of procollagen I and of MMP-1 were measured in the supernatants of the cultures after treatment and irradiation of the cells.
(§11) The NHDF cells were treated with the assay complexes CAAL-2, CAAL-3 and CAAL-4, before (24 h) and after (24 h) UVA irradiation.
(§12) The concentrations of procollagen I [PIP] c-terminal peptide and of metalloproteinase-1 [MMP-1] in the different samples (ng/ml) were corrected according to the protein concentrations of the corresponding wells.
DPC=% of increase in collagen after treatment of the NHDF fibroblast cells with UV in the presence of the complex according to the invention relatively to a control having been subject to a same UV treatment in the absence of the assay complex according to the present invention or other; and
(§13) Assay conditions: • 1. Treating the cells, for 24 h, with the assay elements, before irradiation of the cells, • 2. Exposure of the cells to UV-As, in the absence of the assay elements, • 3. Incubation of the irradiated cells for 24 h, in the presence of the assay elements, • 4. Quantification of the levels of pro-collagen I ([PIP] assay) and of MMP-1 in the incubation media.
(§14) Results: The [PIP] and [MMP] values recorded at the control and treated cultures were corrected according to the average level of cell proteins (μg/well).
Synthesis of procollagen I: assay of the [PIP] (procollagen of the type I peptide) assay in the incubation media.
On the technique in general: ELISA stands for enzyme-linked immunosorbent assay.

For the next series, the system named is MMP-1. In words: MMP-1 ELISA on UV-A irradiated fibroblasts (DPM). The format is cell-based, human. Conditions: for [MMP-1]: (+) UV-A, corrected for cell proteins; for [MMP-1] / DPM, % reduction of MMP-1: VE 1 mM. As for the experimental part: as §1, §2, §3, §4, §5, §6, §7
The MMP-1 activity is measured with an ELISA assay (Human Active MMP-1 from R&D Systems® laboratories, FRANCE) for detecting and quantifying by fluorescence the MMP-1 activity.
as §8, §9, §10, §11, §12
DPM=% of reduction in metalloproteinase-1 after treatment of NHDF fibroblasts with UVs in the presence of the complex according to the invention relatively to a control having been subject to a same UV treatment in the absence of an assay complex according to the present invention or other.
as §13, §14
MMP-1 production: assay of MMP-1 in the incubation media by an Elisa assay.

The subject of series [1] is HaCaT keratinocytes and NHDF fibroblasts. As to the kind of experiment: Skin anti-ageing potential index AAC = AOE + 1/2 DPC + 1/2 DPM. Conditions: Example 1; AOE+½DPC+½DPM. More on the design: species or system human. As for the experimental part:
An anti-age activity index designated as “AAC” was determined according to the present invention, which is a quantitative parameter of the anti-ageing skin potential of a test element taking into account a protective effect at the epidermis by integrating an epidermal anti-oxidant effect score and a protective effect at the dermis by integrating a dermo-protective effect score towards the synthesis of collagen, a main marker of the dermal extracellular matrix (ECM) and/or towards the degradation of metalloproteinase-1 (MMP-1) which is a collagenase enzyme produced by the fibroblasts of the dermis degrading the dermal extracellular matrix (ECM). Still more specifically, a capability is sought for opposing the reduction of collagen synthesis following UV stress and opposing the increase in the production of metalloproteinase-1 for ensuring dermal homeostasis.
More specifically, according to the present invention, an AAC potential is defined as follows:
[AOE]: % of epidermal anti-oxidant potential as defined hereafter.
[DPC.]: % of dermo-protective collagen potential as defined hereafter.
[DPM]: % of dermo-protective MMP1 potential as defined hereafter.
The skin anti-ageing potential ([AAC]) was calculated from the experimental data according to:
[A.A.C]=[AOE]+½.[DPC]+½.[DPM]

Series [2] has as its system human keratinocyte cells (HaCaT line) and fibroblasts. As to the method: For each of the substances above, the maximum non-cytotoxic doses were determined, corresponding to cell viability ≥90% (hereafter “NCD”). Cell viability was evaluated by a neutral red test (NR) on human keratinocyte cells (HaCaT line) and on fibroblasts described hereafter after contact for 48 h. The substances were poured into the culture medium DMEM+10% FCS.

Where [3] appears, read: Example 1, relative to (+) UV control 2 = 100%.
[4] abbreviates: Example 1, NHDF, vs (+) UV control, ASC 50 μg/ml.
[5] abbreviates: Example 1, NHDF, vs (+) UV control.
[6] abbreviates: Example 2, NHDF, vs (+) UV control.

Data on three compounds can be found in patent US20180140537A1, “ACTIVE COMPLEX FOR A COSMETIC PRODUCT AGAINST SKIN AGEING” (priority 2014, published 2018).

For `Cc1c(C)c2c(c(C)c1O)CC[C@@](C)(CCC[C@H](C)CCC[C@H](C)CCCC(C)C)O2` [VE, α-tocopherol], the “DCFH ASSAY intracellular oxidation level [DCFH]” value with HaCaT keratinocytes (Example 1, HaCaT, (+) UV-B 20 mJ/cm2, treated 24 h before and 24 h after, complexes at Table I conc., VE 1 mM, average +/- SD, n=3) is listed as 35.72 +/− 2.66 F.R.U/μg prot. Besides, the “UV-induced ROS” value with HaCaT keratinocytes (Example 1, [DCFH] minus non-irradiated control 1) stood at 22.92 F.R.U/μg prot. In addition, the “UV-induced ROS (%)” value is reported as 19% in the series on HaCaT keratinocytes (setting [3]) and 12% in the series on HaCaT keratinocytes (Example 2, relative to (+) UV control = 100%). Also, the “AOE, % reduction of [ROSUV]” value in the series with HaCaT keratinocytes (Example 1, VE 1 mM) is listed as 81%. Besides, the “UV-induced ROS (DCFH minus non-irradiated control)” value in the series on HaCaT keratinocytes (Example 2) is reported as 16.38 RFU/μg prot. Also, the “DCFH [ROS] intracellular oxidation level” value with HaCaT keratinocytes (Example 2, HaCaT, (+) UV-B 20 mJ/cm2, DMEM+FCS(1%), average +/- SD, n=3) is reported as 28.03 +/− 1.12 RFU/μg prot. Besides, in the series with HaCaT keratinocytes (Example 2, vitamin E 1 mM), the “AOE anti-oxidant epidermal potential, % reduction of [ROSUV]” value turned out to be 88%. Also, the “DPC, % increase in collagen” value in the series on procollagen I (setting [4]) came to 0%. The “[MMP-1]” value is 0.172+/— ng/ml in the series with MMP-1 (Example 1, NHDF, average +/- SD, n=3) and 0.198 +/− 0.006 in the series on MMP-1 (Example 2, NHDF). Also, the “DPM, % reduction of MMP-1” value in the series on MMP-1 (setting [5]) was 31%. Moreover, the “[MMP-1] (%)” value in the series on MMP-1 (setting [3]) turned out to be 69%. Further, the “[MMP-1] % of (+) UV control” value in the series on MMP-1 (Example 2) was determined as 62%. Besides, the “DPM dermo-protective MMP1 potential, % reduction of MMP-1” value with MMP-1 (setting [6]) is on record as 38%. In addition, the “AAC skin anti-ageing potential” value in series [1] stood at 96.5%.

With sodium hyaluronate [SODIUM H[…]], in series [2], the “NCD (%) by weight (maximum non-cytotoxic dose)” value was determined as 0.2% by weight.

With `O=C1O[C@H]([C@@H](O)CO)C([O-])=C1O.[Na+]` [ASC, sodium ascorbate], the “AOE, % reduction of [ROSUV]” value in the series on HaCaT keratinocytes (Example 1, VE 1 mM) is recorded as 0%. In addition, the “DPC, % increase in collagen” value with procollagen I (setting [4]) was found to be 143%. The “[PIP] (%)” value in the series with procollagen I (setting [3]) is 243%. Moreover, the “[PIP] % of (+) UV control” value with procollagen I (Example 2) is recorded as 243%. Also, in the series with procollagen I (Example 2, NHDF, (+) UV-A, corrected for cell proteins, ASC 50 μg/ml), the “[PIP]” value is recorded as 3.79 +/− 0.04. In addition, in the series with procollagen I (setting [6]), the “DPC dermo-protective collagen potential” value is “capable of restoring neosynthesis of collagen I depressed by UVs”. For the same compound, the “DPM, % reduction of MMP-1” value with MMP-1 (setting [5]) worked out at 0%. Further, in series [1], the “AAC skin anti-ageing potential” value worked out at 71.5%.
